Measurements reported in US6818215B2, “Antibodies to senescent cell-derived inhibiters of DNA synthesis” (priority 1991, dated 2004).

Tests used:
HepG2 cells [1] = assay: Cell number by cell counter; format: cell-based, Human; conditions: 20 nM; 72 h
Description: (§1) Human hepatoblastoma cells, HepG2 cells were obtained from the American Type Culture Collection and maintained in RPMI-1640 medium (GIBCO, Grand Island, N.Y.) supplemented with 10% fetal bovine serum (GIBCO), 100 units/ml of penicillin, […] of streptomycin, […] of amphotericin (Sigma Chemical Co.), and 4 mM L-glutamine (GIBCO). The cell cultures were incubated at 37° C. in a humidified CO2 (5%) atmosphere. The cell number in untreated and 9NC-treated cultures was determined with the aid of cell counter (Coulter Electric, Inc., Hialeah, Fla.) and cell viability was monitored by trypan blue dye exclusion.
This inhibitory effect was not associated with cell death as assessed by trypan blue dye exclusion.

HepG2 cells [2] = assay: Phase contrast microscopy, cell size; format: cell-based, Human; conditions: 9NC-treated cells
Excerpt: After 3 to […] of treatment the morphology of the cells remained stable with very little change during the three to four week culture period. Overall, cells appeared to be healthy and metabolically active, and resembled the morphology of primary human hepatocytes grown on plastic surfaces. Virtually no cell proliferation was observed following removal of 9NC and the cells maintained a differentiated phenotype without growth.

HepG2 cells [3] = assay: BrdU incorporation ELISA, DNA synthesis; format: cell-based, Human; conditions: 20 nM; 72 h
Description: as §1
DNA synthesis was measured by 5-bromo-2′-deoxy-uridine (BrdU) incorporation into cellular DNA following 24 h and 72 h. treatment with 9NC using the Cell Proliferation Assay Kit-BrdU/ELISA (Boehringer Mannheim Corp.). Inhibition of DNA synthesis correlated with the length of 9NC treatment and the concentration of 9NC in the cell culture.

[4] = test system: SDI-1 mRNA in HepG2 cells; assay: Northern blot of SDI-1 mRNA (SDI-1/GAPDH) in 9NC-treated cells; format: cell-based, Human
Description: Therefore, initial studies to evaluate the levels of SDI-1 were performed with low doses of 9NC. Total RNA was isolated from HepG2 cells treated with 5 nM and 20 nM 9NC for 72 h and the levels of SDI-1 mRNAs expression in cells were examined by Northern blot hybridization analysis. […] The relative amount of SDI-1 mRNA in each sample was calculated as the ratio of SDI-1/GAPDH.
Caffeine abolishes G2 cell cycle checkpoint induced by DNA-damaging agents (Traganos, F. et al., Canc. Res. 53:4613-4618 (1993); Lau, C. C. et al., Proc. Natl. Acad. Sci. (U.S.A.) 79:2942-2946 (1982)). To assess the specificity of SDI-1 induction by 9NC, the levels of SDI-1 expressions were evaluated via Northern blot analysis after simultaneous addition of caffeine (1 mM) and 9NC. […] To establish the kinetics of 9NC-induced upregulation of SDI-1 gene, the cells cultured for 24 h in control medium were treated with 20 nM of 9NC for 0.5 h, 1.5 h, 3 h, 6 h, 12 h, and 24 h respectively.

HepG2 cells [5] = assay: Cell Proliferation Kit-XTT, metabolic activity; format: cell-based, Human; conditions: 20 nM; 72 h
Description: The effect of 9NC (5 to 80 nM) on cell proliferation and DNA synthesis was evaluated by the Cell Proliferation Kit-XTT (Boehringer Mannheim Corp., IN), a non-radioactive, calorimetric ELISA assay which reflects mitochondrial dehydrogenase activity. The assay is based on the cleavage of the yellow tetrazolium salt XTT to form an orange formazan dye by dehydrogenase activity in active mitochondria. This conversion occurs only in living cells and correlates with their overall metabolic activity.
as §1
9NC was semisynthesized from CPT and purified as described by Wani, M. C. et al. (J. Med. Chem. 29:2358-2363 (1986)). A fine suspension of 9NC (10 μM) was prepared in polyethylene glycol (PEG 400; Aldrich, Milwaukee, Wis.), divided into small aliquots and stored at −80° C. until used. […]

SDI-1 mRNA = assay: Northern analysis of SDI-1 RNA after DNA damaging / growth arrest agents; conditions: bleomycin 75 μg/ml 4 hr; etoposide 400 μM 8 hr; H2O2 400 μM 1 hr; MMS 100 μg 4 hr; Mitomycin C 5 μg/ml 30 hr; CdCl2 250 μM 1 hr; hydroxyurea 2 mM 24 hr; prostaglandin A2 10 μg/ml 24 hr
Description: (§2) To evaluate the effect of DNA damaging agents on SDI mRNA production, normal human neonatal foreskin fibroblast cells (strain HCA2); an immortalized cell line (TE85, obtainable from the American Type Culture Collection, Rockville, Md., US), and the above-described MDAH 041 cell lines were employed. All cells were cultured in Eagle's minimal essential medium with Earl's salts plus 10% fetal bovine serum (Gibco BRL, Gaithersburg, Md., US) in 5% CO2 at 37° C., or in Hanks salts plus 10% fetal bovine serum at 37° C. HCA2 cells achieve approximately 80 population doublings before becoming senescent. The cells were used at population doubling 27 or less.
(§3) For UV irradiation, cells were cultured in 150 cm^2 tissue culture dishes. Immediately prior to treatment the medium was removed and the dishes, without lids, were placed in a Stratagene (La Jolla, Calif., US) StratalinkerUV cross-linking device and irradiated with a dose of 30 J/m^2. Fresh serum-supplemented medium was then added and the cells were incubated at 37° C., 5% CO2. γ-irradiation was performed on cells in complete cell culture medium in 25 cm^2 tissue culture flasks, using a fixed ^137Cs source. The dose rate was 4.21 Gy/min. Exposure was to 4 Gy.
(§4) Tritiated thymidine was added 16 hours following each such treatment and the cells were incubated for 8 hours, fixed and processed for autoradiography; as described above. RNA was harvested 4 or 24 hours post treatment using RNAzol B (Cinna/Biotecx, Houston, Tex.) according to the manufacturer's protocol. 10-20 μg of RNA was separated on a 1.2% agarose gel with 20% formaldehyde, transferred to a Gene screen plus (EN, Boston, Mass.) membrane, probed, and quantitated. Fold induction was determined by comparing treated samples with untreated controls. Controls were mock treated cells put through the same washing, media change, transportation, and inadvertent temperature fluctuation as those receiving treatment. Controls for agents dissolved in ethanol or dimethyl sulfoxide were exposed to the same concentration of the solvent alone. SDI-1 RNA values were normalized to GAPBH levels.

[6] = test system: normal human neonatal foreskin fibroblast cells (strain HCA2); assay: Growth arrest by tritiated thymidine incorporation after DNA damaging / growth arrest agents; format: cell-based; conditions: doses as in Table 10; tritiated thymidine added 16 hours after treatment for 8 hours
Description: as §2, §3, §4

SDI-1 message in TE85 = assay: SDI-1 message level after agents in cells lacking functional p53; format: cell-based, human; conditions: TE85 (mutant p53); agents of Table 10
Description: as §2, §4
(§5) This gene also requires functional p53 for induction by γ-irradiation but not by most other agents (Zhan, Q. et al., Molec. Cell. Biol. 13:4242-4250 (1993)). GADD45 is a member of a family of genes that were identified based upon their induction by both growth arrest and DNA damage (Fornace, A. J. et al., Molec. Cell. Biol. 9:4196-4203 (1989)). […] The above methods can be used to identifiy such additional regulators.

[7] = test system: SDI-1 message in MDAH 041; assay: as above; format: cell-based, human; conditions: MDAH 041 (no p53); agents of Table 10
Description: as §2, §4, §5

[8] = test system: cells in medium containing 0.5% FBS; assay: SDI-1 antisense oligonucleotide, tritiated thymidine incorporation in low serum; format: cell-based; conditions: 1, 2 or 5 μM on Days 1, 3, 5; harvested day 7
Description: Cells were cultured in medium containing 10% fetal bovine serum (FBS) for approximately one week, at which time the medium was replaced with medium containing 0.5% FBS. The cells were divided into control cells and experimental cells. On Day 1, experimental cells were provided with either 1, 2 or 5 μM of the above-described oligonucleotide; Control cells received no oligonucleotide. On Day 3, and again on Day 5, all cells received fresh medium containing 0.5% FBS; experimental cells received additional oligonucleotides (1, 2 or 5 μM). On Day 6, tritiated thymidine was added to the culture media and the cells were harvested on day 7.

cyclin/cdk2 complexes = biological target: T1, cyclin/cdk2 complexes (Homo sapiens, UniProt P24941); assay: Histone H1 kinase activity of cyclin/cdk2 complexes immunoprecipitated from HeLa cell extracts; format: biochemical; conditions: complexes immunoprecipitated by cdk2 antisera
T1 construct: immunoprecipitated from HeLa cell extracts by cdk2 antisera; endogenous in cells; host or cells: HeLa cell extracts, immunoprecipitated with cdk2 antisera
Excerpt: The physiological significance of inhibition of cell proliferation by overexpression of SDI-1 is strengthened by the finding that SDI-1 can inhibit the kinase activity of cyclin/cdk2 complexes.
[…]

young cells = assay: Cellular uptake of GST-SDI-1 fusions and quiescence; format: cell-based
cdk2 protein = biological target: T2, cdk2 protein (Homo sapiens, UniProt P24941); assay: Binding of in vitro translated SDI-1 deletion mutants to purified cdk2, anti-cdk2 immunoprecipitation; conditions: 45 μl translation product, 1 ug cdk2, 4° C.
T2 construct: host or cells: baculovirus expression system
Description: To determine whether the DNA synthesis inhibition caused by these mutants was occurring through inhibition of cdk kinases, the binding of in vitro translated deletion mutant proteins products with purified cdk2protein was examined. Thus, the various deletion mutants of SDI-1 were translated in reticulocyte lysates (Promega) using pBluescript based plasmids as transcription templates for the T7 RNA polymerase. For in vitro binding, 45 μl of the translation product was added to 500 μl binding buffer (50 mM Tris/HCl, pH 7.5, 120 mM NaCl, 2 mM EDTA, 0.1% NP-40, 1 mM NaF, 0.1 m.M sodium vanidate, 5 μg/ml leupeptin, 5 μg/ml soybean trypsin inhibitor, 5 μg/ml aprotinin) containing 1 ug cdk2 protein purified from a bacculovirus expression system. The mixture was gently rocked for 1 hour at 4° C. and then 7.5 μg anti-cdk2 rabbit polyclonal antibody was added. Mixing was continued for 1 hour at 4° C. The immunocomplex was absorbed by incubation with 40 μl protein G plus A beads for 2 hr. The matrices were then washed three times with 0.5 ml of binding buffer prior to electrophoresis and autoradiography.

CC[C@@]1(O)C(=O)OCc2c1cc1n(c2=O)Cc2cc3c([N+](=O)[O-])cccc3nc2-1 [9NC]
decrease in cell numbers (HepG2 cells [1]): at least 2 fold
increased cell size (HepG2 cells [2]): 2 to 5 fold
decrease in DNA synthesis (HepG2 cells [3]): at least 4 fold
time at which SDI-1 gene expression reached maximum ([4]; 20 nM, 0.5-24 h): 24 h
increase in SDI-1 expression (SDI-1/GAPDH) ([4]; 20 nM, 72 h): At least 3 fold
suppression of metabolic activity (HepG2 cells [5]): approximately 20%

[Cl][Cd][Cl] [CdCl2, cadmium chloride]
SDI-1 Level (Fold induction of SDI-1 at 24 hour level) (SDI-1 mRNA): 1.3 Fold induction
% Growth Arrest [6]: 0%

OO [H2O2, hydrogen peroxide]
SDI-1 message level (Control = 1) (SDI-1 message in TE85): 4.0
SDI-1 message level (Control = 1) [7]: 3.3
% Growth Arrest [6]: 95%

COS(C)(=O)=O [MMS, methyl methane sulfonate]
% Growth Arrest [6]: 53%

CO[C@@]12[C@H](COC(N)=O)C3=C(C(=O)C(C)=C(N)C3=O)N1C[C@@H]1N[C@@H]12 [Mitomycin C, mitomycin C]
SDI-1 Level (Fold induction of SDI-1 at 24 hour level) (SDI-1 mRNA): 2.8 Fold induction
SDI-1 message level (Control = 1) (SDI-1 message in TE85): 2.5
% Growth Arrest [6]: 100%

Cn1c(=O)c2c(ncn2C)n(C)c1=O [caffeine]
effect on SDI-1 expression ([4]; caffeine (1 mM) alone): no appreciable effect
effect on 9NC-dependent induction of SDI-1 expression ([4]; simultaneous addition of caffeine (1 mM) and 9NC): abrogated

COc1cc([C@@H]2c3cc4c(cc3[C@@H](O[C@@H]3O[C@@H]5CO[C@@H](C)O[C@H]5[C@H](O)[C@H]3O)[C@H]3COC(=O)[C@H]23)OCO4)cc(OC)c1O [etoposide]
% Growth Arrest [6]: 100%

NC(=O)NO [hydroxyurea]
SDI-1 message level (Control = 1) (SDI-1 message in TE85): 7.5
SDI-1 message level (Control = 1) [7]: 2.5
% Growth Arrest [6]: 100%

CCCCC[C@H](O)/C=C/[C@H]1C=CC(=O)[C@@H]1C/C=C\CCCC(=O)O [prostaglandin A2]
SDI-1 Level (Fold induction of SDI-1 at 24 hour level) (SDI-1 mRNA): 6.1 Fold induction
% Growth Arrest [6]: 100%

AGCCGGTTCTGACATGGCG (chemistry not given here) [antisense oligonucleotide]
tritiated thymidine incorporated into DNA relative to control cells [8]: increase

GST-SDI-1 fusion protein: Schistosoma japonicum GST 1-226, hinge Pro-Arg-Gly-Asp-Pro-Pro-Ala, SDI-1; SEQ ID NO:11; printed as SDI-1 in Table 8
amount giving half maximal inhibition of histone H1 kinase activity (cyclin/cdk2 complexes): 250 ng
quiescence of exposed young cells (young cells): exhibited quiescence
detection of fusion protein within the cells (young cells; provided to young cells): detectable within the cells

bleomycin
SDI-1 Level (Fold induction of SDI-1 at 24 hour level) (SDI-1 mRNA): 11.8 Fold induction
% Growth Arrest [6]: 100%

B1: 72-77: SDI-1 mutant with amino acids 72-77 deleted, HA tagged (protein)
chain: MSEPAGDVRQNPCGSKACRRLFGPVDSEQLSRDCDALMAGCIQEARERWNFDFVTETPLEGDFAWERVRGLPRGLPTGPRRGRDELGGGRRPGTSPALLQGTAEEDHVDLSLSCTLVPRSGEQAEGSPGGPGDSQGRKRRQTSMTDFYHSKRRLIFSKRKP
modifications: left off: small tags and cut ends
notes: SDI-1 mutant with amino acids 72-77 deleted, HA tagged
binding to purified cdk2 protein (cdk2 protein): bound cdk2 protein efficiently
